Columns and labels:
Type in all cases: cell-based
Kasumi-7 cells = test: Human acute lymphoblastic leukemia cell line Kasumi-7 proliferation suppression test; conditions: 72 h, compound 10 μM, 3 days, WST-8, read-out: cell survival rate (% of control) Kasumi-7
Excerpt: Example 55: Human Acute Lymphoblastic Leukemia Cell Line Kasumi-7 Proliferation Suppression Test
Kasumi-7 cells (NIBIOHN, JCRB1401) were suspended in 20% fetal calf serum (Thermo Fisher Scientific, Inc.)-containing RPMI1640 medium (ATCC, hereinafter abbreviated as medium C), and diluted as appropriate with 0.4% trypan blue solution (Sigma-Aldrich Co. LLC.). The number of viable cells was counted with a hemocytometer (Funakoshi Co., Ltd.). A cell suspension obtained by diluting with medium C such that the value obtained was 1.3×10^5 cells/mL was dispensed into a Falcon 96 well flat bottom plate (Corning Incorporated) at 75 μL/well, and culture was started at 37° C. under 5% CO2 stream. The next day, a solution obtained by diluting 4 mM DMSO solution of the test compound 100-fold with medium C was added by 25 μL to each well (final concentration of test compound 10 μM). 25 μL of a solution obtained by diluting DMSO 100-fold with medium C was added to the control well. After culturing at 37° C. in a 5% CO2 stream for 3 days, the cell proliferation activity was measured according to the instruction manual attached to WST-8 Kit (KISHIDA CHEMICAL Co., Ltd.).

MM.1S cells = test: Human myeloma cell line MM.1S proliferation suppression test; conditions: MM1.S, 72 h, compound 10 μM, 3 days, WST-1 or WST-8, read-out: cell survival rate (% of control) MM.1S
Experimental: Example 51: Human Myeloma Cell Line MM.1S Proliferation Suppression Test
MM.1S cells (ATCC, CRL-2974) were suspended in 10% fetal calf serum (Thermo Fisher Scientific)-containing RPMI1640 medium (ATCC, hereinafter abbreviated as medium B), and diluted as appropriate with 0.4% trypan blue solution (Sigma-Aldrich Co. LLC.). The number of viable cells was counted with a hemocytometer (ERMA INC.). It was diluted with medium B such that the value obtained was 2×10^5 cells/mL. On the other hand, 50 μL of a solution obtained by diluting 4 mM DMSO solution of the test compound 200-fold with medium B was added to each well of a Falcon 96-well flat bottom plate (Corning Incorporated), and the above-mentioned cell suspension was dispensed at 50 μL/well (final concentration of test compound 10 μM). 50 μL of a solution obtained by diluting DMSO 200-fold with medium B was added to the control well. After culturing at 37° C. in a 5% CO2 stream for 3 days, the cell proliferation activity was measured using WST-1 (DOJINDO LABORATORIES) or WST-8 Kit (KISHIDA CHEMICAL Co., Ltd.) and according to each instruction manual attached thereto.

TNF-α production = test: Human TNF-α production suppression test (LPS-stimulated peripheral blood mononuclear cells, ELISA); conditions: PBMC, compound 10 μg/mL, 24 hr, control well = 100, read-out: TNF-α production suppressive rate (%)
Experimental: Example 50: Human TNF-α Production Suppression Test
Peripheral blood of a healthy adult was collected in a vacuum blood collection tube (Terumo, containing EDTA/2Na), and then diluted two-fold with an equal volume of OTSUKA NORMAL SALINE (Otsuka Pharmaceutical Co., Ltd.). The diluted blood was mixed with Lymphoprep (AXIS-SHIELD) in half the volume of the diluted blood, dispensed into a 15 mL conical tube, and centrifuged at room temperature for 20 min (2,100 rpm). The mononuclear cells accumulated at the interface between Lymphoprep and plasma was transferred to a 50 mL conical tube, diluted with OTSUKA NORMAL SALINE, and the mononuclear cells suspension was centrifuged at room temperature for 10 min (1,150 rpm) and then the supernatant was removed. The mononuclear cells fraction obtained as a precipitate was suspended in an appropriate amount of 10% fetal calf serum (Thermo Fisher Scientific)-containing RPMI1640 medium (Thermo Fisher Scientific, hereinafter abbreviated as medium A), and diluted as appropriate with 0.4% trypan blue solution (Sigma-Aldrich Co. LLC.). The number of viable cells was counted with a hemocytometer (ERMA INC.). It was diluted with medium A such that the value obtained was 5×10^5 cells/mL. On the other hand, 75 μL of medium A, 5 μL of 0.4 mg/mL test compound solution (DMSO solution 10-fold diluted with medium A), and 20 μL of 10 μg/mL lipopolysaccharide (Sigma-Aldrich Co. LLC.) solution (diluted with medium A) were each added in advance to the same well of a Falcon 96-well flat bottom plate (Corning Incorporated), and the above-mentioned cell suspension was dispensed at 0.1 mL/well. 5 μL of DMSO diluted 10-fold with medium A was added to the control well instead of the compound solution. After culturing at 37° C. in a 5% CO2 stream for 24 hr, the culture solution was centrifuged at 4° C., 1,000 rpm for 3 min and the supernatant was recovered. The content of TNF-α in the supernatant was measured using an ELISA kit (Peprotech) according to a conventional method. The amount of TNF-α produced in the well containing the test compound was determined with the amount of TNF-α produced in the control well as 100, and the suppression rate was calculated for each test.

Daudi cells = test: Human Burkitt lymphoma cell line Daudi proliferation suppression test; conditions: 72 h, compound 10 μM, 3 days, WST-8, read-out: cell survival rate (% of control) Daudi
Excerpt: Example 54: Human Burkitt Lymphoma Cell Line Daudi Proliferation Suppression Test
Daudi cells (National Institutes of Biomedical Innovation, Health and Nutrition (NIBIOHN), JCRB9071) were suspended in medium B, and diluted as appropriate with 0.4% trypan blue solution (Sigma-Aldrich Co. LLC.). The number of viable cells was counted with a hemocytometer (ERMA INC.). A cell suspension obtained by diluting with medium B such that the value obtained was 1.3×10^5 cells/mL was dispensed into a Falcon 96 well flat bottom plate (Corning Incorporated) at 75 μL/well, and culture was started at 37° C. under 5% CO2 stream. The next day, a solution obtained by diluting 4 mM DMSO solution of the test compound 100-fold with medium B was added by 25 μL to each well (final concentration of test compound 10 μM). 25 μL of a solution obtained by diluting DMSO 100-fold with medium B was added to the control well. After culturing at 37° C. in a 5% CO2 stream for 3 days, the cell proliferation activity was measured according to the instruction manual attached to WST-8 Kit (KISHIDA CHEMICAL Co., Ltd.).

| Structure (SMILES) | viability at 10 µM (Kasumi-7 cells) [%] | viability at 10 µM (MM.1S cells) [%] | inhibition at 10 µg/mL (TNF-α production) [%] | viability at 10 µM (Daudi cells) [%] |
| --- | --- | --- | --- | --- |
| O=C1CCC(n2cc(-c3cscc3Br)nn2)C(=O)N1 (stereo not shown) [compound 1, 3-[4-(4-bromothiophen-3-yl)-1H-1,2,3-triazol-1-yl]piperidine-2,6-dione] | 65 | 33 | 90 | 61 |
| O=C1CCC(n2cc(-c3ccsc3)nn2)C(=O)N1 (stereo not shown) [compound 2, 3-[4-(thiophen-3-yl)-1H-1,2,3-triazol-1-yl]piperidine-2,6-dione] | 68 | 50 | 98 | 71 |
| O=C1CCC(n2cc(-c3cccs3)nn2)C(=O)N1 (stereo not shown) [compound 3, 3-[4-(thiophen-2-yl)-1H-1,2,3-triazol-1-yl]piperidine-2,6-dione] | 81 | 59 | 59 | 78 |
| O=C1CCC(n2nnc(-c3ccsc3)c2Cl)C(=O)N1 (stereo not shown) [compound 4, 3-[5-chloro-4-(thiophen-3-yl)-1H-1,2,3-triazol-1-yl]piperidine-2,6-dione] | 91 | 87 | 67 | 82 |
| Cc1ccc(-c2cn(C3CCC(=O)NC3=O)nn2)s1 (stereo not shown) [compound 5, 3-[4-(5-methylthiophen-2-yl)-1H-1,2,3-triazol-1-yl]piperidine-2,6-dione] | 72 | 66 | 71 | 82 |
| Cc1cc(-c2cn(C3CCC(=O)NC3=O)nn2)cs1 (stereo not shown) [compound 6, 3-[4-(5-methylthiophen-3-yl)-1H-1,2,3-triazol-1-yl]piperidine-2,6-dione] | 72 | 63 | 67 | 79 |
| Cc1cscc1-c1cn(C2CCC(=O)NC2=O)nn1 (stereo not shown) [compound 7, 3-[4-(4-methylthiophen-3-yl)-1H-1,2,3-triazol-1-yl]piperidine-2,6-dione] | 69 | 57 | 73 | 75 |
| CC(=O)c1ccc(-c2cn(C3CCC(=O)NC3=O)nn2)s1 (stereo not shown) [compound 8, 3-[4-(5-acetylthiophen-2-yl)-1H-1,2,3-triazol-1-yl]piperidine-2,6-dione] | 94 | 94 | 64 | 93 |
| O=C1CCC(n2cc(-c3csc(CO)c3)nn2)C(=O)N1 (stereo not shown) [compound 9, 3-{4-[5-(hydroxymethyl)thiophen-3-yl]-1H-1,2,3-triazol-1-yl}piperidine-2,6-dione] | 90 | 77 | 41 | 83 |
| O=C1CCC(n2cc(-c3scc4c3OCCO4)nn2)C(=O)N1 (stereo not shown) [compound 10, 3-[4-(2,3-dihydrothieno[3,4-b][1,4]dioxin-5-yl)-1H-1,2,3-triazol-1-yl]piperidine-2,6-dione] | 72 | 78 | 50 | 85 |
| O=C1CCC(n2cc(-c3ccc(Cl)s3)nn2)C(=O)N1 (stereo not shown) [compound 11, 3-[4-(5-chlorothiophen-2-yl)-1H-1,2,3-triazol-1-yl]piperidine-2,6-dione] | 78 | 63 | 81 | 94 |
| O=C1CCC(n2cc(-c3ccc(Br)s3)nn2)C(=O)N1 (stereo not shown) [compound 12, 3-[4-(5-bromothiophen-2-yl)-1H-1,2,3-triazol-1-yl]piperidine-2,6-dione] | 89 | 74 | 84 | 87 |
| O=C1CCC(n2cc(-c3cc(Br)sc3Br)nn2)C(=O)N1 (stereo not shown) [compound 13, 3-[4-(2,5-dibromothiophen-3-yl)-1H-1,2,3-triazol-1-yl]piperidine-2,6-dione] | 93 | 79 | 35 | 95 |
| O=C1CCC(n2cc(-c3cscc3Cl)nn2)C(=O)N1 (stereo not shown) [compound 14, 3-[4-(4-chlorothiophen-3-yl)-1H-1,2,3-triazol-1-yl]piperidine-2,6-dione] | 64 | 43 | 75 | 49 |
| COc1c(-c2cn(C3CCC(=O)NC3=O)nn2)csc1C (stereo not shown) [compound 15, 3-[4-(4-methoxy-5-methylthiophen-3-yl)-1H-1,2,3-triazol-1-yl]piperidine-2,6-dione] | 60 | 55 | 85 | 61 |
| COC(=O)c1scc(-c2cn(C3CCC(=O)NC3=O)nn2)c1OC (stereo not shown) [compound 16, methyl 4-[1-(2,6-dioxopiperidin-3-yl)-1H-1,2,3-triazol-4-yl]-3-methoxythiophene-2-carboxylate] | 90 | 85 | 100 | 83 |
| CCOc1cscc1-c1cn(C2CCC(=O)NC2=O)nn1 (stereo not shown) [compound 17, 3-[4-(4-ethoxythiophen-3-yl)-1H-1,2,3-triazol-1-yl]piperidine-2,6-dione] | 48 | 32 | 92 | 50 |
| COc1sccc1-c1cn(C2CCC(=O)NC2=O)nn1 (stereo not shown) [compound 18, 3-[4-(2-methoxythiophen-3-yl)-1H-1,2,3-triazol-1-yl]piperidine-2,6-dione] | 52 | 27 | 100 | 51 |
| COc1cscc1-c1cn(C2CCC(=O)NC2=O)nn1 (stereo not shown) [compound 19, 3-[4-(4-methoxythiophen-3-yl)-1H-1,2,3-triazol-1-yl]piperidine-2,6-dione] | 24 | 24 | 83 | 4 |
